According to patent publication US20170368082A1, “FORMULATIONS OF BRINCIDOFOVIR” (priority 2016, published 2017):
Where two headings read alike, the source gives them in different places.

Assay: Phase 2 toxicokinetics of brincidofovir and cidofovir in plasma
Format: in vivo, Sprague-Dawley CD rats
Details: for Cmax/Dose / Tlast / AUClast/Dose / AUC(0-t) / Cmax / Tmax: brincidofovir in plasma; for concentration at 1 h / concentration at 2 h / concentration at 8 h / concentration at 24 h / concentration at 0 h / AUC(0-t) / Cmax / Tmax: female, Sprague-Dawley CD, rat, plasma; for concentration at 1 h / concentration at 2 h / concentration at 8 h / concentration at 24 h / concentration at 0 h: intravenous; for AUC(0-t) / Cmax / Tmax: iv; for Tmax: read-out: Tmax
Procedure: Plasma samples (108) were collected 2 hours following the initiation of dosing on Day 1 and Day 7 (Group 1), or at 1, 2, 8, and 24 hours following the initiation of dosing on Day 1, and prior to administration and at 2, 8, and 24 hours following the initiation of dosing on Day 7 (Groups 2 and 3), and analyzed to determine the concentrations of brincidofovir and the metabolite, cidofovir), by LC/MS/MS.
Approximately 0.4 mL of whole blood was obtained via the tail vein from each animal at each time point. Animals were not fasted prior to blood collection. Blood was collected into tubes containing K2EDTA anticoagulant and placed on wet ice in an upright position, per facility SOP prior to processing. Plasma was separated by centrifugation (10 minutes at approximately 2000 g, at approximately 2-8° C.). Approximately 0.10 mL of plasma was transferred into a single cryotube appropriately labeled with study number, animal number, time point, date of sampling and sample type. Remaining plasma was transferred into a second cryotube and retained as a backup sample. Plasma frozen at approximately −80±10° C. within approximately 2 hours after collection of each blood sample until analysis. Animals were euthanized (CO2 inhalation) after the final blood collection.
In general, TK parameters were estimated using mean plasma concentrations of brincidofovir and cidofovir derived from the composite blood sampling design using Phoenix WinNonLin (V 6.3).
A composite blood sampling design was used such that each rat was sampled twice per sampling day. Blood was collected via tail vein from unanesthetized animals into tubes containing anticoagulant and placed on wet ice in an upright position. Animals were not fasted prior to blood collection. Plasma was separated by centrifugation (for 10 minutes at approximately 2000 g, at approximately 2-8° C.), and transferred into individually labeled cryotubes. All cryotubes containing the collected plasma samples were appropriately labeled as to study number, animal number, time point, date of sampling and sample type. All plasma samples were obtained and frozen at approximately −80° C. (±10° C.) within approximately 2 hours after collection of each blood sample until analysis.
Rat plasma bioanalysis was conducted by Pyxant Laboratories. Plasma samples were analyzed for concentrations of brincidofovir and cidofovir using a method based upon protein precipitation extraction followed by LC-MS/MS analysis; calibration ranges for brincidofovir and cidofovir were 1.00-1500 ng/mL and 5.00-750 ng/mL, respectively, (Pyxant study number 3025) for a 50 μL aliquot of rat plasma. Sample analysis for ISR was not performed as part of this non-GLP study.
For the generation of Mean Profiles, all sample concentrations that were below the limit of quantitation (BLQ) were set to 0.
All pharmacokinetic parameter estimates were completed using a Non-Compartmental Model (Model 200-202 for IV infusion administration). The AUClast and AUCinf were calculated using the linear up log down trapezoidal rule.

[1] = 1 mg/kg 2-hour IV infusion, Male rats, Day 1
[2] = 1 mg/kg 2-hour IV infusion, Male rats, Day 7
[3] = 15 mg/kg 2-hour IV infusion, Female rats, Day 1
[4] = 15 mg/kg 2-hour IV infusion, Female rats, Day 7
[5] = 15 mg/kg 2-hour IV infusion, Male rats, Day 1
[6] = 15 mg/kg 2-hour IV infusion, Male rats, Day 7
[7] = 1 mg/kg, 1 mg/kg 2-hour IV infusion, Female rats, Day 1
[8] = 1 mg/kg, 1 mg/kg 2-hour IV infusion, Female rats, Day 7

## CCCCCCCCCCCCCCCCOCCCOP(=O)(O)CO[C@H](CO)Cn1ccc(N)nc1=O [Brincidofovir]
[1]
  Cmax/Dose: 235 (ng/mL)/(mg/kg)
  Tlast: 2 h
[2]
  Cmax/Dose: 208 (ng/mL)/(mg/kg)
  Tlast: 2 h
[3]
  AUClast/Dose: 491 (h*ng/mL)/(mg/kg)
  Cmax/Dose: 231 (ng/mL)/(mg/kg)
  Tlast: 24 h
[4]
  AUClast/Dose: 228 (h*ng/mL)/(mg/kg)
  Cmax/Dose: 110 (ng/mL)/(mg/kg)
  Tlast: 24 h
[5]
  AUClast/Dose: 585 (h*ng/mL)/(mg/kg)
  Cmax/Dose: 291 (ng/mL)/(mg/kg)
  Tlast: 24 h
[6]
  AUClast/Dose: 273 (h*ng/mL)/(mg/kg)
  Cmax/Dose: 127 (ng/mL)/(mg/kg)
  Tlast: 24 h
1 mg/kg, brincidofovir 1 mg/kg, Female, Day 1, 1 h, read-out: brincidofovir Imputed Mean Concentration (IMC)
  concentration at 1 h: 137 ng/mL
1 mg/kg, brincidofovir 1 mg/kg, Female, Day 1, 1 h, read-out: brincidofovir Mean Concentration (MC)
  concentration at 1 h: 137 ng/mL
1 mg/kg, brincidofovir 1 mg/kg, Female, Day 1, 2 h, read-out: brincidofovir Imputed Mean Concentration (IMC)
  concentration at 2 h: 191 ng/mL
1 mg/kg, brincidofovir 1 mg/kg, Female, Day 1, 2 h, read-out: brincidofovir Mean Concentration (MC)
  concentration at 2 h: 191 ng/mL
1 mg/kg, brincidofovir 1 mg/kg, Female, Day 1, 8 h, read-out: brincidofovir Imputed Mean Concentration (IMC)
  concentration at 8 h: 1.25 ng/mL
1 mg/kg, brincidofovir 1 mg/kg, Female, Day 1, 8 h, read-out: brincidofovir Mean Concentration (MC)
  concentration at 8 h: 1.25 ng/mL
1 mg/kg, brincidofovir 1 mg/kg, Female, Day 1, 24 h, read-out: brincidofovir Mean Concentration (MC)
  concentration at 24 h: 0 ng/mL
1 mg/kg, brincidofovir 1 mg/kg, Female, Day 7, 0 h, read-out: brincidofovir Imputed Mean Concentration (IMC)
  concentration at 0 h: 0 ng/mL
1 mg/kg, brincidofovir 1 mg/kg, Female, Day 7, 0 h, read-out: brincidofovir Mean Concentration (MC)
  concentration at 0 h: 0 ng/mL
1 mg/kg, brincidofovir 1 mg/kg, Female, Day 7, 2 h, read-out: brincidofovir Imputed Mean Concentration (IMC)
  concentration at 2 h: 95.4 ng/mL
1 mg/kg, brincidofovir 1 mg/kg, Female, Day 7, 2 h, read-out: brincidofovir Mean Concentration (MC)
  concentration at 2 h: 95.4 ng/mL
1 mg/kg, brincidofovir 1 mg/kg, Female, Day 7, 8 h, read-out: brincidofovir Imputed Mean Concentration (IMC)
  concentration at 8 h: 2.19 ng/mL
1 mg/kg, brincidofovir 1 mg/kg, Female, Day 7, 8 h, read-out: brincidofovir Mean Concentration (MC)
  concentration at 8 h: 2.19 ng/mL
1 mg/kg, brincidofovir 1 mg/kg 2-h IV infusion, female rats, Day 1, 1 h, BLQ imputed as zero, read-out: Imputed Concentration, Mean
  concentration at 1 h: 137 ng/mL
1 mg/kg, brincidofovir 1 mg/kg 2-h IV infusion, female rats, Day 1, 1 h, BLQ imputed as zero, read-out: Imputed Concentration, individual animals
  concentration at 1 h: 109 ng/mL
1 mg/kg, brincidofovir 1 mg/kg 2-h IV infusion, female rats, Day 1, 2 h, BLQ imputed as zero, read-out: Imputed Concentration, Mean
  concentration at 2 h: 191 ng/mL
1 mg/kg, brincidofovir 1 mg/kg 2-h IV infusion, female rats, Day 1, 2 h, BLQ imputed as zero, read-out: Imputed Concentration, individual animals
  concentration at 2 h: 253 ng/mL
1 mg/kg, brincidofovir 1 mg/kg 2-h IV infusion, female rats, Day 1, 8 h, BLQ imputed as zero, read-out: Imputed Concentration, Mean
  concentration at 8 h: 1.25 ng/mL
1 mg/kg, brincidofovir 1 mg/kg 2-h IV infusion, female rats, Day 1, 24 h, BLQ imputed as zero, read-out: Imputed Concentration, Mean
  concentration at 24 h: 0 ng/mL
1 mg/kg, brincidofovir 1 mg/kg 2-h IV infusion, female rats, Day 1, 24 h, BLQ imputed as zero, read-out: Imputed Concentration, individual animals
  concentration at 24 h: 0 ng/mL
1 mg/kg, brincidofovir 1 mg/kg 2-h IV infusion, female rats, Day 7, 0 h, BLQ imputed as zero, read-out: Imputed Concentration, individual animals
  concentration at 0 h: 0 ng/mL
15 mg/kg, 15 mg/kg, female rats, Day 1, 2 h, read-out: IC (Imputed Concentration), individual animals
  concentration at 2 h: 2460 ng/mL
15 mg/kg, 15 mg/kg, female rats, Day 1, 8 h, read-out: C (Concentration), individual animals
  concentration at 8 h: 5.05 ng/mL
15 mg/kg, 15 mg/kg, female rats, Day 1, 8 h, read-out: IC (Imputed Concentration), individual animals
  concentration at 8 h: 5.05 ng/mL
15 mg/kg, 15 mg/kg, female rats, Day 1, 24 h, read-out: C (Concentration), individual animals
  concentration at 24 h: 2.32 ng/mL
15 mg/kg, 15 mg/kg, female rats, Day 1, 24 h, read-out: IC (Imputed Concentration), individual animals
  concentration at 24 h: 2.32 ng/mL
15 mg/kg, 15 mg/kg, female rats, Day 7, 8 h, read-out: C (Concentration), individual animals
  concentration at 8 h: 5.32 ng/mL
15 mg/kg, 15 mg/kg, female rats, Day 7, 8 h, read-out: IC (Imputed Concentration), individual animals
  concentration at 8 h: 5.32 ng/mL
15 mg/kg, 15 mg/kg, female rats, Day 7, 24 h, read-out: C (Concentration), individual animals
  concentration at 24 h: 2.37 ng/mL
[7]
  AUC(0-t): 459 ng·h/mL
  Cmax: 191 ng/mL
  Tmax: 2 h
[8]
  AUC(0-t): 244 ng·h/mL
  Cmax: 95.4 ng/mL
  Tmax: 2 h
